Reference: patent publication US6190664A, “Depigmenting cosmetic skin-care composition and use thereof” (C 3 D, priority 1995, dated 2001)

System: Tyrosinase
Test: In vitro inhibition of tyrosinase (Dopachrome at 475 nm, substrate L-Dopa)
Format: biochemical
Details: for % of activity: controls = 100%
Procedure: The following test then allows to measure the inhibition of tyrosinase while dosing Dopachrome which is a coloured compound which may spectroscopically be dosed 475 nm.
In order to study the influence of some compounds on the enzymatic activity of tyrosinase, the enzymatic kinetics are achieved.
The reaction is performed at 25° C. in phosphate buffer pH7. Tyrosinase is brought together with its substrate L-Dopa. In the reaction medium it may be added the molecule to be studied.
One compares further the variation in optical density per minute of the test (in the presence of the molecule to be studied) to that of the controls (without molecule). The influence of the molecule on tyrosinase activity will be deduced. The results are then expressed as a percentage of activity knowing that the controls show 100% activity.
Appearance of Dopachrome at 475 nm is followed for 3 minutes.

SMILES | % of inhibition (tested concentration 1 mg/ml) [%] | % of activity (tested concentration 1 mg/ml) [%] | % of inhibition (tested concentration 4 mg/ml) [%] | % of activity (tested concentration 4 mg/ml) [%] | % of inhibition (tested concentration 8 mg/ml) [%] | % of activity (tested concentration 8 mg/ml) [%] | % of inhibition (tested concentration 16 mg/ml) [%] | % of activity (tested concentration 16 mg/ml) [%] | % of inhibition (tested concentration 10 mg/ml) [%] | % of activity (tested concentration 10 mg/ml) [%]
CCCCCCCCCCCCCCCC(=O)OC[C@H](O)[C@H]1OC(=O)C(O)=C1O [Ascorbyl Palmitate] | 66 | 34 | – | – | – | – | – | – | – | –
Oc1ccc(O)cc1 [Hydroquinone] | – | – | 0 | 241.9 | 0 | 229.41 | 0 | 112.53 | – | –
O=c1cc(CO)occ1O [Kojic acid] | 71 | 29 | – | – | – | – | – | – | 80 | 20
